In US20100152434A1, “Protein Kinase-binding Nucleosides and Associated Methods” (priority 2007, published 2010):
Where two headings read alike, the source gives them in different places.

What was measured:
[1] = system: MDA-MB-435; test: cells; conditions: Homo sapiens
[2] = system: HOP-92; test: cells; conditions: Homo sapiens
[3] = system: NCI-H226; test: cells; conditions: Homo sapiens
[4] = system: OVCAR-4
[5] = system: NCI/ADR-RES
[6] = system: COLO 205
[7] = system: LOX IMVI; test: cells; conditions: Homo sapiens
[8] = system: MCF7
[9] = system: DU-145; test: cells; conditions: Homo sapiens
[10] = system: SK-MEL-5
[11] = system: U251
[12] = system: T-47D
[13] = system: HCC-2998; test: cells; conditions: Homo sapiens
[14] = system: SF-295; test: cells; conditions: Homo sapiens
[15] = system: RXF 393; test: cells; conditions: Homo sapiens
[16] = system: SF-268; test: cells; conditions: Homo sapiens
[17] = system: NCI/ADR-RES; test: cells; conditions: Homo sapiens
[18] = system: CCRF-CEM; test: cells; conditions: Homo sapiens
[19] = system: NCI-H522; test: cells; conditions: Homo sapiens
[20] = system: T-47D; test: cells; conditions: Homo sapiens, T47D
[21] = system: IGROV1
[22] = system: SK-MEL-2; test: cells; conditions: Homo sapiens
[23] = system: ACHN; test: cells; conditions: Homo sapiens
[24] = system: CCRF-CEM
[25] = system: 60 different human tumor cell lines (the NCI 60); conditions: CCRF-CEM; HL-60(TB); K-562; MOLT-4; RPMI-8226; SR; A549/ATCC; HOP-92; NCI-H460; HCT-116; HCT-15; HT29; SF-268; SF-295; U251; LOX IMVI; SK-MEL-28; SK-MEL-5; IGROV1; OVCAR-3; OVCAR-8; A498; RXF393; MCF7; HS578T
[26] = system: NCI-H460; test: cells; conditions: Homo sapiens
[27] = Log10 Concentration −4.0, Molar
[28] = Log10 Concentration −5.0, Molar
[29] = Log10 Concentration −6.0, Molar
[30] = Log10 Concentration −7.0, Molar
[31] = Log10 Concentration −8.0, Molar

## CNC(=O)NC[C@H]1O[C@@H](n2cnc3c(NC(=O)Nc4ccccc4)ncnc32)[C@H](O[Si](C)(C)C(C)(C)C)[C@@H]1CC(=O)N(C)OC [Compound 13, 2′-O-(tert-Butyldimethylsilyl)-3′,5′-dideoxy-3′-[(N-methoxy-N-methylcarboxamido)methyl]-5′-[(N-methylcarbamoyl)amino]-N^6-(N-phenylcarbamoyl)adenosine]
[1]; MDA-MB-435
  GI50: 10.9 µM
[1]; MDA-MB-435, read-out: LC50
  CC50: > 100 µM
[2]; HOP-92
  GI50: 2.71 µM
[2]; HOP-92, read-out: LC50
  CC50: > 100 µM
[3]; NCI-H226
  GI50: 41.9 µM
[3]; NCI-H226, read-out: LC50
  CC50: > 100 µM
[4]
  TGI: >1.00E−4 Molar
[4]; Log10 Concentration −4.0
  Percent Growth: 46%
[4]; Log10 Concentration −5.0
  Percent Growth: 60%
[4]; Log10 Concentration −6.0
  Percent Growth: 96%
[4]; Log10 Concentration −7.0
  Percent Growth: 100%
[4]; Log10 Concentration −8.0
  Percent Growth: 100%
[5]; NCI/ADR-RES
  TGI: >1.00E−4 Molar
[5]; NCI/ADR-RES, Log10 Concentration −4.0
  Percent Growth: 55%
[5]; NCI/ADR-RES, Log10 Concentration −5.0
  Percent Growth: 76%
[5]; NCI/ADR-RES, Log10 Concentration −6.0
  Percent Growth: 105%
[5]; NCI/ADR-RES, Log10 Concentration −7.0
  Percent Growth: 109%
[5]; NCI/ADR-RES, Log10 Concentration −8.0
  Percent Growth: 109%
[6]
  TGI: >1.00E−4 Molar
[6]; Log10 Concentration −4.0
  Percent Growth: 1%
[6]; Log10 Concentration −5.0
  Percent Growth: 55%
[6]; Log10 Concentration −6.0
  Percent Growth: 90%
[6]; Log10 Concentration −7.0
  Percent Growth: 93%
[6]; Log10 Concentration −8.0
  Percent Growth: 97%
[7]
  GI50: 7.3 µM
[7]; read-out: LC50
  CC50: > 100 µM
[8]
  TGI: >1.00E−4 Molar
[8]; Log10 Concentration −5.0
  Percent Growth: 34%
[8]; Log10 Concentration −6.0
  Percent Growth: 96%
[8]; Log10 Concentration −7.0
  Percent Growth: 95%
[8]; Log10 Concentration −8.0
  Percent Growth: 91%
[9]; DU-145
  GI50: 16.6 µM
[9]; DU-145, read-out: LC50
  CC50: > 100 µM
[10]
  TGI: >1.00E−4 Molar
[10]; Log10 Concentration −4.0
  Percent Growth: 11%
[10]; Log10 Concentration −5.0
  Percent Growth: 38%
[10]; Log10 Concentration −6.0
  Percent Growth: 89%
[10]; Log10 Concentration −7.0
  Percent Growth: 98%
[10]; Log10 Concentration −8.0
  Percent Growth: 104%
[11]
  TGI: >1.00E−4 Molar
[11]; Log10 Concentration −4.0
  Percent Growth: 25%
[11]; Log10 Concentration −5.0
  Percent Growth: 37%
[11]; Log10 Concentration −6.0
  Percent Growth: 90%
[11]; Log10 Concentration −7.0
  Percent Growth: 101%
[11]; Log10 Concentration −8.0
  Percent Growth: 97%
[12]
  TGI: >1.00E−4 Molar
[12]; Log10 Concentration −4.0
  Percent Growth: 17%
[12]; Log10 Concentration −5.0
  Percent Growth: 56%
[12]; Log10 Concentration −6.0
  Percent Growth: 84%
[12]; Log10 Concentration −7.0
  Percent Growth: 89%
[12]; Log10 Concentration −8.0
  Percent Growth: 90%
[13]; HCC 2998
  GI50: 30.6 µM
[13]; HCC 2998, read-out: LC50
  CC50: > 100 µM
[14]; SF-295
  GI50: 9.09 µM
[14]; SF-295, read-out: LC50
  CC50: > 100 µM
[15]; RXF 393
  GI50: 9.74 µM
[15]; RXF 393, read-out: LC50
  CC50: > 100 µM
[16]; SF-268
  GI50: 8.29 µM
[16]; SF-268, read-out: LC50
  CC50: > 100 µM
[17]
  GI50: > 100 µM
[17]; read-out: LC50
  CC50: > 100 µM
[18]
  GI50: 6.37 µM
[18]; read-out: LC50
  CC50: > 100 µM
[19]; NCI-H522
  GI50: 11.1 µM
[19]; NCI-H522, read-out: LC50
  CC50: > 100 µM
[20]
  GI50: 13.9 µM
[20]; read-out: LC50
  CC50: > 100 µM
[21]
  TGI: 6.57E−5 Molar
[21]; Log10 Concentration −4.0
  Percent Growth: −6%
[21]; Log10 Concentration −5.0
  Percent Growth: 26%
[21]; Log10 Concentration −6.0
  Percent Growth: 82%
[21]; Log10 Concentration −7.0
  Percent Growth: 89%
[21]; Log10 Concentration −8.0
  Percent Growth: 89%
[22]; SK-MEL-2
  GI50: 14.9 µM
[22]; SK-MEL-2, read-out: LC50
  CC50: > 100 µM
[23]
  GI50: 14.4 µM
[23]; read-out: LC50
  CC50: > 100 µM
[24]
  TGI: >1.00E−4 Molar
[24]; Log10 Concentration −4.0
  Percent Growth: 23%
[24]; Log10 Concentration −5.0
  Percent Growth: 39%
[24]; Log10 Concentration −6.0
  Percent Growth: 96%
[24]; Log10 Concentration −7.0
  Percent Growth: 100%
[24]; Log10 Concentration −8.0
  Percent Growth: 101%
[25]
  GI50 values (potent anticancer activities): low micromolar
[26]; NCI-H460
  GI50: 7.49 µM
[26]; NCI-H460, read-out: LC50
  CC50: > 100 µM

## CNC(=O)NC[C@H]1O[C@@H](n2cnc3c(NC(=O)Nc4ccccc4)ncnc32)C(O[Si](C)(C)C(C)(C)C)[C@H]1O[Si](C)(C)C(C)(C)C (stereo partly drawn) [Compound 25, 2′,3′-Bis-O-(tert-butyldimethylsilyl)-5-deoxy-5′-[(N-methylcarbamoyl)amino]-N^6-(N-phenylcarbamoyl)adenosine]
[1]; MDA-MB-435
  GI50: 3.41 µM
  IC50: > 100 µM
[2]; HOP-92
  GI50: 15.5 µM
  IC50: 97.5 µM
[3]; NCI-H226
  GI50: 3.1 µM
  IC50: > 100 µM
[4]
  TGI: 4.39E−5 Molar
[4]; [27]
  Percent Growth: −4%
[4]; [28]
  Percent Growth: 7%
[4]; [29]
  Percent Growth: 100%
[4]; [30]
  Percent Growth: 106%
[4]; [31]
  Percent Growth: 106%
[5]; NCI/ADR-RES (Ovarian Cancer panel)
  TGI: 2.07E−5 Molar
[5]; NCI/ADR-RES (Ovarian Cancer panel), Log10 Concentration −4.0 Molar
  Percent Growth: −21%
[5]; NCI/ADR-RES (Ovarian Cancer panel), Log10 Concentration −5.0 Molar
  Percent Growth: 10%
[5]; NCI/ADR-RES (Ovarian Cancer panel), Log10 Concentration −6.0 Molar
  Percent Growth: 103%
[5]; NCI/ADR-RES (Ovarian Cancer panel), Log10 Concentration −7.0 Molar
  Percent Growth: 109%
[5]; NCI/ADR-RES (Ovarian Cancer panel), Log10 Concentration −8.0 Molar
  Percent Growth: 105%
[6]
  TGI: 3.35E−6 Molar
[6]; [27]
  Percent Growth: −94%
[6]; [28]
  Percent Growth: −95%
[6]; [29]
  Percent Growth: 105%
[6]; [30]
  Percent Growth: 111%
[6]; [31]
  Percent Growth: 109%
[7]
  GI50: 1.82 µM
  IC50: 62.1 µM
[8]
  TGI: 1.93E−5 Molar
[8]; [27]
  Percent Growth: −15%
[8]; [28]
  Percent Growth: 5%
[8]; [29]
  Percent Growth: 83%
[8]; [30]
  Percent Growth: 96%
[8]; [31]
  Percent Growth: 99%
[9]; DU-145
  GI50: 2.59 µM
  IC50: 18.7 µM
[10]
  TGI: 4.75E−6 Molar
[10]; [27]
  Percent Growth: −99%
[10]; [28]
  Percent Growth: −42%
[10]; [29]
  Percent Growth: 82%
[10]; [30]
  Percent Growth: 96%
[10]; [31]
  Percent Growth: 102%
[11]
  TGI: 1.08E−5 Molar
[11]; [27]
  Percent Growth: −46%
[11]; [28]
  Percent Growth: 2%
[11]; [29]
  Percent Growth: 93%
[11]; [30]
  Percent Growth: 102%
[11]; [31]
  Percent Growth: 102%
[12]
  TGI: 1.03E−5 Molar
[12]; [27]
  Percent Growth: −32%
[12]; [29]
  Percent Growth: 92%
[12]; [30]
  Percent Growth: 105%
[12]; [31]
  Percent Growth: 101%
[13]; HCC 2998
  GI50: 2.02 µM
  IC50: 6.99 µM
[14]; SF-295
  GI50: 3.84 µM
  IC50: > 100 µM
[15]; RXF 393
  GI50: 2.14 µM
  IC50: 7.5 µM
[16]; SF-268
  GI50: 3.58 µM
  IC50: > 100 µM
[17]
  GI50: 3.72 µM
  IC50: > 100 µM
[18]
  GI50: 3.59 µM
  IC50: > 100 µM
[19]; NCI-H522
  GI50: 2.39 µM
  IC50: > 100 µM
[20]
  GI50: 2.87 µM
  IC50: > 100 µM
[21]
  TGI: 7.76E−6 Molar
[21]; [27]
  Percent Growth: −39%
[21]; [28]
  Percent Growth: −12%
[21]; [29]
  Percent Growth: 98%
[21]; [30]
  Percent Growth: 99%
[21]; [31]
  Percent Growth: 100%
[22]; SK-MEL-2
  GI50: 2.45 µM
  IC50: 28.3 µM
[23]
  GI50: 3.83 µM
  IC50: > 100 µM
[24]
  TGI: >1.00E−4 Molar
[24]; [27]
  Percent Growth: 4%
[24]; [28]
  Percent Growth: 9%
[24]; [29]
  Percent Growth: 101%
[24]; [30]
  Percent Growth: 109%
[24]; [31]
  Percent Growth: 104%
[26]; NCI-H460
  GI50: 1.72 µM
  IC50: 7.11 µM
